Several values for one entry are separate records, joined by “and”; a condition that tells them apart may be missing. Identical values can stand only once. Like-named read-outs stand apart in the source and are kept apart here.
Experiments:
[1] = Pharmacokinetics in ICR mice after intravenous and intragastric administration; type: in vivo; settings: for F*: PO 5 mg/kg vs IV 2 mg/kg; for MRT last: read-out: MRT(0-t); for MRT inf: read-out: MRT(0-∞); for Vd: read-out: Vz
Method: Experimental Example 3 Determination of the Pharmacokinetics of the Mdm2 Inhibitors of the Present Invention in Mice
ICR mice were used as the test animals, and the concentrations of the drugs in plasma of mice at different time points after intravenous administration and intragastric administration of the representative compounds were measured by a LC/MS/MS method, so as to study the pharmacokinetic behavior of the compounds of the present invention in mice and evaluate the pharmacokinetic characteristics thereof.
Some compounds prepared in Examples 1-180 of the present invention.
The control drug HDM201 was prepared by the method disclosed in patent No. CN104203952A.
Healthy adult ICR mice, male, 6-9 weeks old, weighing 20-30 g, purchased from Shanghai Xipuer-Bikai Laboratory Animal Co., Ltd., Animal Production License No.: SCXK (HU) 2013-0016
3.2.3 Preparation of Test Drugs
Intragastric or intravenous administration: an appropriate amount of sample was weighed, dissolved in 5% DMSO+40% PEG400+55% (10% HP-β-CD in Saline) to prepare a 0.5 mg/ml solution for intragastric or intravenous administration.
3.2.4 Administration of Test Drugs
Intravenous administration: for each test compound, 3 male ICR mice were administered intravenously at a dose of 2 mg/kg and an administration volume of […] after fasting overnight.
Intragastric administration: for each test compound, 3 male ICR mice were administered intragastrically at a dose of 5 mg/kg and an administration volume of […] after fasting overnight.
3.3 Experimental Operation
The collected plasma was stored at −80° C. before analysis. The plasma sample was analyzed by LC-MS/MS, and the sample was pretreated by protein precipitation method. The linear range of sample analysis was 1 to 2000 ng/ml. The lowest quantification limit was 1 ng/mL. WinNonlin (Pharsight, USA) was used to calculate the following pharmacokinetic parameters: area under the curve AUC(0-t), area under the curve AUC(0-∞), half-life t1/2, retention time MRT(0-∞), blood drug concentration Cmax, time taken to reach the peak blood drug concentration Tmax, bioavailability F, apparent volume of distribution Vz, and clearance rate CL.

[2] = test system: human osteosarcoma cell line SJSA-1; experiment: Inhibition of proliferation of human osteosarcoma cell line SJSA-1 (DAPI staining, In Cell Analyzer); settings: Homo sapiens, SJSA-1, 72 h, read-out: IC50 (nM), inhibitory activity on proliferation of human osteosarcoma cell line SJSA-1, SJSA-1, incubated 72 h
MDM2 = target: T1, MDM2 (Homo sapiens, UniProt Q00987); experiment: Inhibition test of MDM2-P53 (GST-MDM2, Biotin-P53, Anti-GST-Tb, SA-XL665); type: binding
T1 construct: made in house
T1 sequence (Q00987 whole entry): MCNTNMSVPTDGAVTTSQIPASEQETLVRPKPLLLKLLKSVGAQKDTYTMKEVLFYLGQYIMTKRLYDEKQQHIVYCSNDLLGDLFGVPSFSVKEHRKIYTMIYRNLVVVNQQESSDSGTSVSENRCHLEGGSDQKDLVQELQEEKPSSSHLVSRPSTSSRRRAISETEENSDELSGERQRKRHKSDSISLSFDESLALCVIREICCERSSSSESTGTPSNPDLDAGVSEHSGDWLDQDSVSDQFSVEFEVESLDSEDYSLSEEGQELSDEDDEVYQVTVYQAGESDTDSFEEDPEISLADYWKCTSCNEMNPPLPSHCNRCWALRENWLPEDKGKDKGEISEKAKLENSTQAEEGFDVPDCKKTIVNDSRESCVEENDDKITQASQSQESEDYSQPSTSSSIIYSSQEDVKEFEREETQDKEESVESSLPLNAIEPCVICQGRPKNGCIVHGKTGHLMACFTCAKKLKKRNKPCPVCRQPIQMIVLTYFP
Outline: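 Compounds, serially diluted 5-fold (twelve concentrations), were shaken for 90 min at 25° C with a mix of GST-MDM2 (4 nM final), Biotin-P53, anti-GST-Tb and SA-XL665. Buffer: 1×PBS, 0.1% BSA, 5 mM DTT, 1 mM AEBSF; signal read on a microplate reader.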

[3] = IV 2 mg/kg, ICR mice, individual animal, 2 mg/kg
[4] = PO 5 mg/kg, ICR mice, individual animal, 5 mg/kg
[5] = male, ICR, mouse, plasma, iv, 2 mg/kg, IV 2 mg/kg, ICR mice, Mean
[6] = male, ICR, mouse, plasma, iv, 2 mg/kg, IV 2 mg/kg, ICR mice, Mean, read-out: AUC(0-t)
[7] = male, ICR, mouse, plasma, iv, 2 mg/kg, IV 2 mg/kg, ICR mice, Mean, read-out: Cmax
[8] = male, ICR, mouse, plasma, iv, 2 mg/kg, IV 2 mg/kg, ICR mice, Mean, read-out: Tmax
[9] = male, ICR, mouse, plasma, iv, 2 mg/kg, IV 2 mg/kg, ICR mice, Mean, read-out: t1/2 (converted)
[10] = male, ICR, mouse, plasma, iv, 2 mg/kg, IV 2 mg/kg, ICR mice, individual animal
[11] = male, ICR, mouse, plasma, iv, 2 mg/kg, IV 2 mg/kg, ICR mice, individual animal, read-out: AUC(0-t)
[12] = male, ICR, mouse, plasma, iv, 2 mg/kg, IV 2 mg/kg, ICR mice, individual animal, read-out: Cmax
[13] = male, ICR, mouse, plasma, iv, 2 mg/kg, IV 2 mg/kg, ICR mice, individual animal, read-out: t1/2 (converted)
[14] = male, ICR, mouse, plasma, po, 5 mg/kg, PO 5 mg/kg, ICR mice, Mean
[15] = male, ICR, mouse, plasma, po, 5 mg/kg, PO 5 mg/kg, ICR mice, Mean, read-out: AUC(0-t)
[16] = male, ICR, mouse, plasma, po, 5 mg/kg, PO 5 mg/kg, ICR mice, Mean, read-out: Cmax
[17] = male, ICR, mouse, plasma, po, 5 mg/kg, PO 5 mg/kg, ICR mice, Mean, read-out: Tmax
[18] = male, ICR, mouse, plasma, po, 5 mg/kg, PO 5 mg/kg, ICR mice, Mean, read-out: t1/2 (converted)
[19] = male, ICR, mouse, plasma, po, 5 mg/kg, PO 5 mg/kg, ICR mice, individual animal
[20] = male, ICR, mouse, plasma, po, 5 mg/kg, PO 5 mg/kg, ICR mice, individual animal, read-out: Tmax
[21] = male, ICR, mouse, plasma, po, 5 mg/kg, PO 5 mg/kg, ICR mice, individual animal, read-out: t1/2 (converted)
[22] = male, ICR, mouse, plasma, po, 5 mg/kg, oral intragastric administration 5 mg/kg, read-out: AUC0-t
[23] = male, ICR, mouse, plasma, po, 5 mg/kg, oral intragastric administration 5 mg/kg, read-out: half-life (converted)

In the case of `COc1ncc(-c2nc3c(n2C(C)C)[C@@]2(C(=O)Nc4cc(Cl)ccc42)N(c2cccc(Cl)c2)C3=O)c(OC)n1` [Example S-1, (S)-6-chloro-5′-(3-chlorophenyl)-2′-(2,4-dimethoxypyrimidin-5-yl)-3′-isopropyl-3′H-spiro[dihydroindole-3,4′-pyrrolo[3,4-d]imidazole]-2,6′(5′H)-dione], the “AUC(0-t)” value [1, 3] is reported as 843.53 ng·h/mL and 532.69 ng·h/mL, the “AUC(0-∞)” value [1, 3] is reported as 855.63 ng·h/mL and 548.82 ng·h/mL and the CL [1, 3] is reported as 38.9578 mL/min/kg and 60.7363 mL/min/kg. The Cmax [1, 3] was 336.17 ng/mL and 307.80 ng/mL, the “MRT(0-t)” value [1, 3] was 1.34 h and the “MRT(0-∞)” value [1, 3] was 1.43 h and 1.52 h. The Vz [1, 3] was 3.30882 L/kg and 6.38069 L/kg, the t1/2 [1, 3] was 0.98 h and 1.21 h and the “F*” value ([1]; ICR mice) was 76.30%. For the same molecule, the “AUC(0-t)” value [1, 4] was 1822.90 ng·h/mL and 1944.41 ng·h/mL and 241.17 ng·h/mL, the “AUC(0-∞)” value [1, 4] was 1834.25 ng·h/mL and 2088.41 ng·h/mL and 330.15 ng·h/mL and the Cmax [1, 4] was 629.23 ng/mL and 471.21 ng/mL and 92.81 ng/mL. The “MRT(0-t)” value [1, 4] was 2.60 h and 1.79 h, the “MRT(0-∞)” value [1, 4] was 3.17 h and 3.13 h and the t1/2 [1, 4] was 1.98 h and 1.92 h. For the same molecule, the AUC(0-inf) [1, 5] was 714 ng·h/mL, the clearance [1, 5] was 48.3 mL/min/kg and the AUC(0-t) [1, 6] was 700 ng·h/mL. It also gave a Cmax [1, 7] of 325 ng/mL, an MRT last [1, 5] of 1.33 h and an MRT inf [1, 5] of 1.45 h. It also gave a Tmax [1, 8] of 0.083 h, a Vd [1, 5] of 4.54 L/kg and a half-life [1, 9] of 1.07 h. The AUC(0-inf) [1, 10] was 737 ng·h/mL, the clearance [1, 10] was 45.2 mL/min/kg and the AUC(0-t) [1, 11] was 725 ng·h/mL. It also gave a Cmax [1, 12] of 330 ng/mL, an MRT last [1, 10] of 1.31 h and an MRT inf [1, 10] of 1.41 h. It also gave a Tmax ([1]; male, ICR, mouse, plasma, iv, 2 mg/kg, IV 2 mg/kg, ICR mice, individual animal, read-out: Tmax) of 0.08 h, a Vd [1, 10] of 3.92 L/kg and a half-life [1, 13] of 1 h. The AUC(0-inf) [1, 14] was 1420 ng·h/mL, the AUC(0-t) [1, 15] was 1340 ng·h/mL and the Cmax [1, 16] was 398 ng/mL. It also gave an MRT last [1, 14] of 2.11 h, an MRT inf [1, 14] of 2.76 h and a Tmax [1, 17] of 1 h. It also gave a half-life [1, 18] of 1.64 h, an MRT last [1, 19] of 1.94 h and an MRT inf [1, 19] of 1.99 h. The Tmax [1, 20] was 1 h, the half-life [1, 21] was 1.03 h and the AUC(0-t) [1, 22] was 1340 ng·h/mL. It also gave a half-life [1, 23] of 1.64 h, an IC50 [2] of 39.6 nM and an IC50 (MDM2) of 2.21 nM.
For `COc1ncc(-c2nc3c(n2C(C)C)[C@@]2(C(=O)Nc4cc(Cl)ccc42)N(c2cc(Cl)ccc2C)C3=O)c(OC)n1` [Example S-2, (S)-6-chloro-5′-(5-chloro-2-methylphenyl)-2′-(2,4-dimethoxypyrimidin-5-yl)-3′-isopropyl-3′H-spiro[dihydroindole-3,4′-pyrrolo[3,4-d]imidazole]-2,6′(5′H)-dione], the “AUC(0-t)” value [1, 3] was 1477.86 ng·h/mL and 1362.57 ng·h/mL, the “AUC(0-∞)” value [1, 3] was 1494.93 ng·h/mL and 1392.31 ng·h/mL and the CL [1, 3] was 22.2977 mL/min/kg and 23.941 mL/min/kg. The Cmax [1, 3] was 456.11 ng/mL and 492.38 ng/mL, the “MRT(0-t)” value [1, 3] was 1.51 h and the “MRT(0-∞)” value [1, 3] was 1.54 h and 1.64 h. For the same molecule, the Tmax [1, 3] was 0.50 h and 1.00 h and 0.08 h, the Vz [1, 3] was 1.80436 L/kg and 2.29183 L/kg and the t1/2 [1, 3] was 0.93 h and 1.11 h. The “F*” value ([1]; ICR mice) was 101.81%, the “AUC(0-t)” value [1, 4] was 3883.23 ng·h/mL and 4136.52 ng·h/mL and the “AUC(0-∞)” value [1, 4] was 4100.77 ng·h/mL and 4259.08 ng·h/mL. For the same molecule, the Cmax [1, 4] was 729.77 ng/mL and 804.59 ng/mL, the “MRT(0-t)” value [1, 4] was 2.87 h and 2.76 h and the “MRT(0-∞)” value [1, 4] was 3.28 h and 2.97 h. The Tmax [1, 4] was 1.00 h, the t1/2 [1, 4] was 1.83 h and 1.50 h and the AUC(0-inf) [1, 5] was 1480 ng·h/mL. For the same molecule, the clearance [1, 5] was 22.5 mL/min/kg, the AUC(0-t) [1, 6] was 1460 ng·h/mL and the Cmax [1, 7] was 475 ng/mL. The MRT last [1, 5] was 1.48 h, the MRT inf [1, 5] was 1.56 h and the Tmax [1, 8] was 0.528 h. The Vd [1, 5] was 1.88 L/kg, the half-life [1, 9] was 0.96 h and the AUC(0-inf) [1, 10] was 1560 ng·h/mL. The clearance [1, 10] was 21.3 mL/min/kg, the AUC(0-t) [1, 11] was 1550 ng·h/mL and the Cmax [1, 12] was 477 ng/mL. For the same molecule, the MRT last [1, 10] was 1.47 h, the MRT inf [1, 10] was 1.51 h and the Vd [1, 10] was 1.55 L/kg. The half-life [1, 13] was 0.84 h, the AUC(0-inf) [1, 14] was 3870 ng·h/mL and the AUC(0-t) [1, 15] was 3730 ng·h/mL. It also gave a Cmax [1, 16] of 730 ng/mL, an MRT last [1, 14] of 2.84 h and an MRT inf [1, 14] of 3.12 h. The Tmax [1, 17] was 1.67 h, the half-life [1, 18] was 1.59 h and the AUC(0-inf) [1, 19] was 3250 ng·h/mL. For the same molecule, the AUC(0-t) ([1]; male, ICR, mouse, plasma, po, 5 mg/kg, PO 5 mg/kg, ICR mice, individual animal, read-out: AUC(0-t)) was 3170 ng·h/mL, the Cmax ([1]; male, ICR, mouse, plasma, po, 5 mg/kg, PO 5 mg/kg, ICR mice, individual animal, read-out: Cmax) was 656 ng/mL and the MRT last [1, 19] was 2.89 h. The MRT inf [1, 19] was 3.09 h, the Tmax [1, 20] was 2 h and the half-life [1, 21] was 1.45 h. For the same molecule, the AUC(0-t) [1, 22] was 3730 ng·h/mL, the half-life [1, 23] was 1.59 h and the bioavailability ([1]; male, ICR, mouse, plasma, oral intragastric administration 5 mg/kg, read-out: bioavailability) was 102%. For the same molecule, the IC50 [2] was 7.4 nM and the IC50 (MDM2) was 1.13 nM.
